Results as given in US8809344B2, “Compounds, compositions, and methods for control of hepatitis C viral infections” (priority 2008, dated 2014).

Tests used:
Huh7.5 cells = assay: ATP viability assay (CellTiter-Glo) in replicon-harboring Huh7.5 cells; assay type: cell-based, human; details: 24 hours post-treatment; Huh7.5 cells harboring transient genotype 1b replicon
Experimental: Inhibition of HCV replication by AP0089652, AP0080978 (enantiomer 2 from Example 1) and AP0080977 (enantiomer 1 from Example 1) were assayed by exposing cells harboring an HCV genotype 1b replicons to the compounds and quantitating HCV replicon levels following exposure. The replicon used in these studies was a transient genotype 1b subgenomic replicon generated from the Con1 strain. In this replicon, the HCV internal ribosome entry site (IRES) within the 5′ non-translated region (NTR) drives expression of the first 32 amino acids of the core protein fused to humanized Renilla luciferase (hRluc). The encephalomycarditis IRES lies 3′ to the hRluc open reading frame (ORF) and drives expression of non-structural (NS) proteins NS3 through NS5B. Huh7.5 cells (U.S. patent application Ser. No. 10/534,571) harboring this replicon were seeded into 96-well plates at 20,000 cells per well in medium containing 10% FBS, 1× penicillin/streptomycin, 1× non-essential amino acids, and 100 ng/ml Fungizone. After a four hour attachment period, compound was added to wells using a five point 3-fold serial dilution series with four replicate treatments per dose. […] Compound-mediated HCV inhibition and toxicity were assayed 24 hours post-treatment using Renilla luciferase readout and an ATP viability assay (CellTiter-Glo, Promega, Madison, Wis., USA), respectively. […]

[1] = tested on: chimeric APV23 (FL-J6/JFH) genotype 2a HCV; assay: HCV APV23 viral infectivity assay in Huh7.5 cells, 3′NTR RNA by realtime quantitative PCR; assay type: cell-based, hepatitis C virus; details: FIG. 6; genotype 2a NS4B coding region
Experimental: (§1) Inhibition of HCV infectivity by AP0080978 and its analogs (AP0080977, non-active enantiomer; AP0089652, racemate; and AP0080935, an aromatic, non-optically active analog of AP0080978) was assayed by exposing cells with infectious chimeric HCV virions in the presence of the compounds. This was accomplished by use of an HCV cell culture system essentially as described in Pietschmann, T. et al. (2006) 103(19): 7408-13, Proc. Natl. Acad. Sci. USA; and elsewhere. Two viral constructs were utilized to characterize inhibition of viral infectivity (FIG. 4). Construct APV23 (FL-J6/JFH) is a full-length, chimeric, genotype 2a HCV genome containing the HCV core through the NS2 first transmembrane domain coding region from the J6 HCV isolate linked to the second NS2 transmembrane domain NS3 through NS5B coding region of HCV strain JFH-1, as shown in FIG. 4 (i.e. an HCV chimera with the “C3 Junction” described in Pietschmann, T. et al. (2006) Proc. Natl. Acad. Sci. USA 103(19): 7408-13; see page 7409 and FIG. 2A of Pietschmann, T. et al.). Construct APV112 was generated by replacing nucleotides encoding amino acids 53 to 218 of the NS4B gene of the APV23 sequence with a corresponding sequence from a genotype 1b (Con1 strain).
(§2) Huh7.5 cells were plated at a density of 20,000 cells per well in 96-well plates. The cells were exposed to the chimeric HCV virions at a multiplicity of infection of 0.01. Potential inhibitory compounds were added simultaneously with the chimeric virus. Cells were incubated for 48 hours and then the levels of HCV 3′NTR and GAPDH RNA were quantified by realtime quantitative PCR. Data were analyzed by the comparative Ct method with delta-delta Ct determined relative to 1.0% DMSO. Results in FIGS. 5 and 6 are depicted as log change in 3′NTR copies relative to 1.0% DMSO.

[2] = tested on: chimeric APV112 HCV (genotype 2a with genotype 1b NS4B amino acids 53 to 218); assay: HCV APV112 viral infectivity assay in Huh7.5 cells, 3′NTR RNA by realtime quantitative PCR; assay type: cell-based, hepatitis C virus; details: for Log change in 3′NTR copies relative to 1.0% DMSO (GAPDH normalized): APV112, 48 hours
Experimental: as §1, §2

For `O=C(NCc1cccs1)c1nn2c(c1Cl)NC(c1ccco1)CC2C(F)(F)F` (stereo not drawn) [Compound 89652, 3-chloro-5-(furan-2-yl)-N-(thiophen-2-ylmethyl)-7-(trifluoromethyl)-4,5,6,7-tetrahydropyrazolo[L5-a]pyrimidine-2-carboxamide], the CC50 (Huh7.5 cells) was greater than 100 µM, the “chimeric APV23 viral infectivity” value [1] was “unaffected” and the “potency in viral infectivity assays relative to HCV replicon assays” value [2] was “significantly more potent”. For the same compound, the “Log change in 3′NTR copies relative to 1.0% DMSO (GAPDH normalized)” value ([2]; 0.02 μM) was −0.15, the “Log change in 3′NTR copies relative to 1.0% DMSO (GAPDH normalized)” value ([2]; 0.07 μM) was −0.52 and the “Log change in 3′NTR copies relative to 1.0% DMSO (GAPDH normalized)” value ([2]; 0.22 μM) was −0.85. For the same compound, the “Log change in 3′NTR copies relative to 1.0% DMSO (GAPDH normalized)” value ([2]; 0.67 μM) was −1.31, the “Log change in 3′NTR copies relative to 1.0% DMSO (GAPDH normalized)” value ([2]; 2 μM) was −1.47 and the “chimeric APV112 viral infectivity” value ([2]; FIG. 5, sensitive genotype 1b NS4B region) was “reduced”.
